According to a compilation of properties of binary mixtures (doi:10.1021/acs.jced.2c00096):

Test: xn = mol fraction of the nth substance listed
Details: 100 kPa

CCCC[N+]1(C)CCCC1.O=S(=O)([O-])C(F)(F)F + O
Details	electrical conductivity [S/m]	viscosity [mPa·s]
288.15 K, x2 = 0.1203	0.173	196
288.15 K, x2 = 0.1956	0.21	151.5
288.15 K, x2 = 0.4836	0.458	56.8
288.15 K, x2 = 0.5819	0.603	40.25
288.15 K, x2 = 0.6794	0.78	27.75
288.15 K, x2 = 0.8612	1.43	10.36
288.15 K, x2 = 0.95	1.75	3.99
293.15 K, x2 = 0.0597	0.188	181.1
293.15 K, x2 = 0.1203	0.22	148.6
293.15 K, x2 = 0.1956	0.266	116.3
293.15 K, x2 = 0.3766	0.426	64.1
293.15 K, x2 = 0.4836	0.563	45
293.15 K, x2 = 0.5819	0.732	32.19
293.15 K, x2 = 0.6794	0.954	22.37
293.15 K, x2 = 0.7673	1.26	15.18
293.15 K, x2 = 0.95	2.07	3.36
298.15 K, x2 = 0.1203	0.276	114.9
298.15 K, x2 = 0.1956	0.334	91
298.15 K, x2 = 0.3197	0.453	61.1
298.15 K, x2 = 0.4836	0.68	36.38
298.15 K, x2 = 0.5819	0.886	26.17
298.15 K, x2 = 0.8612	2.04	7.14
303.15 K, x2 = 0.0597	0.299	108.4
303.15 K, x2 = 0.1203	0.343	90.6
303.15 K, x2 = 0.1956	0.406	72.5
303.15 K, x2 = 0.3197	0.545	49.4
303.15 K, x2 = 0.4836	0.808	29.8
303.15 K, x2 = 0.5819	1.04	21.59
303.15 K, x2 = 0.6794	1.37	15.22
303.15 K, x2 = 0.7673	1.79	10.5
303.15 K, x2 = 0.8612	2.38	6.05
308.15 K, x2 = 0.0597	0.364	86.1
308.15 K, x2 = 0.1956	0.488	58.6
308.15 K, x2 = 0.3197	0.647	40.48
308.15 K, x2 = 0.4836	0.953	24.76
308.15 K, x2 = 0.5819	1.23	18.04
308.15 K, x2 = 0.6794	1.6	12.8
308.15 K, x2 = 0.7673	2.08	8.89
308.15 K, x2 = 0.8612	2.77	5.14
308.15 K, x2 = 0.95	3.16	2.17
313.15 K, x2 = 0.0597	0.435	69.4
313.15 K, x2 = 0.1203	0.497	58.9
313.15 K, x2 = 0.3197	0.76	33.61
313.15 K, x2 = 0.3766	0.866	28.63
313.15 K, x2 = 0.4836	1.11	20.81
313.15 K, x2 = 0.6794	1.86	10.89
313.15 K, x2 = 0.7673	2.4	7.6
313.15 K, x2 = 0.8612	3.17	4.47
313.15 K, x2 = 0.95	3.56	1.91
318.15 K, x2 = 0.0597	0.52	56.7
318.15 K, x2 = 0.1956	0.68	39.82
318.15 K, x2 = 0.3766	1.01	24.15
318.15 K, x2 = 0.4836	1.28	17.69
318.15 K, x2 = 0.5819	1.63	13.03
318.15 K, x2 = 0.6794	2.14	9.36
318.15 K, x2 = 0.7673	2.75	6.57
318.15 K, x2 = 0.8612	3.61	3.9
318.15 K, x2 = 0.95	4	1.7
323.15 K, x2 = 0.1203	0.686	40.38
323.15 K, x2 = 0.3197	1.03	23.95
323.15 K, x2 = 0.3766	1.16	20.59
323.15 K, x2 = 0.4836	1.47	15.18
323.15 K, x2 = 0.7673	3.11	5.73
323.15 K, x2 = 0.8612	4.06	3.43
328.15 K, x2 = 0.0597	0.713	39.32
328.15 K, x2 = 0.1203	0.796	34.03
328.15 K, x2 = 0.1956	0.921	28.34
328.15 K, x2 = 0.3197	1.17	20.52
328.15 K, x2 = 0.4836	1.67	13.15
328.15 K, x2 = 0.5819	2.12	9.79
328.15 K, x2 = 0.6794	2.76	7.1
328.15 K, x2 = 0.7673	3.5	5.04
328.15 K, x2 = 0.8612	4.55	3.04
328.15 K, x2 = 0.95	4.93	1.37
333.15 K, x2 = 0.0597	0.83	33.27
333.15 K, x2 = 0.1203	0.918	28.94
333.15 K, x2 = 0.1956	1.05	24.27
333.15 K, x2 = 0.3197	1.33	17.75
333.15 K, x2 = 0.3766	1.48	15.39
333.15 K, x2 = 0.4836	1.88	11.49
333.15 K, x2 = 0.6794	3.09	6.26
333.15 K, x2 = 0.7673	3.91	4.46
333.15 K, x2 = 0.8612	5.05	2.71
333.15 K, x2 = 0.95	5.42	1.24
